Measured values from the supplement of paper PMC4862054.

Each compound was assayed on Hs578T (assay: normalised response (% of control), CellTiter-Glo; higher = more viable cells (100 = DMSO, 0 = benzethonium chloride kill control)). Details: incubation time: 72 h.
Experimental: (§1)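 DSRT, 72 h incubation, CellTox Green / CellTiter-Glo readout. Signal is normalised to DMSO and benzethonium chloride controls. Value is the normalised response at the highest dose.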
For `C=CC(=O)Nc1cc2c(Nc3ccc(F)c(Cl)c3)ncnc2cc1OCCCN1CCOCC1` [Canertinib] (10000 nM), the normalised response was 17.4%. For `C=CC(=O)N1CCC[C@@H](n2nc(-c3ccc(Oc4ccccc4)cc3)c3c(N)ncnc32)C1` [Ibrutinib] (1000 nM), the normalised response was 106%. In the case of `O=C(O)CCCCC(CCSCc1ccccc1)SCc1ccccc1` (configuration not stated) [CPI-613] (10000 nM), the normalised response was 99.2%. `CCc1cncnc1N1CCN(Cc2nc3ccc(C(F)(F)F)cc3[nH]2)CC1` (10000 nM) gave a normalised response of 95.7%.

The compounds below were run on CAL-85-1 in the same assay as above. Details: incubation time: 72 h.
Experimental: as §1
Work on `CCCCC(=O)OCC(=O)[C@]1(O)Cc2c(O)c3c(c(O)c2[C@@H](O[C@H]2C[C@H](NC(=O)C(F)(F)F)[C@H](O)[C@H](C)O2)C1)C(=O)c1c(OC)cccc1C3=O` [Valrubicin] (5000 nM) yielded a normalised response of 37%. Compound `Cc1ccc(-c2cc(C(F)(F)F)nn2-c2ccc(S(N)(=O)=O)cc2)cc1` [Celecoxib] (10000 nM) has a normalised response of 102%. `Oc1ncc(N(CCCl)CCCl)c(O)n1` [Uracil mustard] (10000 nM) gave a normalised response of 103%. `C=CCc1cccc(/C=N/NC(=O)CN2CCN(Cc3ccccc3)CC2)c1O` [PAC-1] (10000 nM) showed a normalised response of 21%. `COc1cc2c(NC3CCN(C(C)C)CC3)nc(C3CCCCC3)nc2cc1OCCCN1CCCC1` [UNC0638] (10000 nM) was tested, and the normalised response was 0.26%. Work on `C=CC(=O)Nc1cc2c(Nc3ccc(F)c(Cl)c3)ncnc2cc1OCCCN1CCOCC1` [Canertinib] (10000 nM) yielded a normalised response of 3.6%. With `C=CC(=O)N1CCC[C@@H](n2nc(-c3ccc(Oc4ccccc4)cc3)c3c(N)ncnc32)C1` [Ibrutinib] (1000 nM) the normalised response was 50.2%. For `O=C(O)CCCCC(CCSCc1ccccc1)SCc1ccccc1` (configuration not stated) [CPI-613] (10000 nM), the normalised response was 97.5%. With `CCc1cncnc1N1CCN(Cc2nc3ccc(C(F)(F)F)cc3[nH]2)CC1` (10000 nM) the normalised response was 91.8%.

These compounds were tested on HCC1599 in the same assay as above. Details: incubation time: 72 h.
Experimental: as §1
Work on `CCCCC(=O)OCC(=O)[C@]1(O)Cc2c(O)c3c(c(O)c2[C@@H](O[C@H]2C[C@H](NC(=O)C(F)(F)F)[C@H](O)[C@H](C)O2)C1)C(=O)c1c(OC)cccc1C3=O` [Valrubicin] (5000 nM) yielded a normalised response of 24.8%. With `Cc1ccc(-c2cc(C(F)(F)F)nn2-c2ccc(S(N)(=O)=O)cc2)cc1` [Celecoxib] (10000 nM) the normalised response was 109%. In the case of `Oc1ncc(N(CCCl)CCCl)c(O)n1` [Uracil mustard] (10000 nM), the normalised response was 115%. `C=CCc1cccc(/C=N/NC(=O)CN2CCN(Cc3ccccc3)CC2)c1O` [PAC-1] (10000 nM) showed a normalised response of 33.4%. `COc1cc2c(NC3CCN(C(C)C)CC3)nc(C3CCCCC3)nc2cc1OCCCN1CCCC1` [UNC0638] (10000 nM) gave a normalised response of 14%. In the case of `C=CC(=O)Nc1cc2c(Nc3ccc(F)c(Cl)c3)ncnc2cc1OCCCN1CCOCC1` [Canertinib] (10000 nM), the normalised response was 66.4%. `C=CC(=O)N1CCC[C@@H](n2nc(-c3ccc(Oc4ccccc4)cc3)c3c(N)ncnc32)C1` [Ibrutinib] (1000 nM) gave a normalised response of 111%. `O=C(O)CCCCC(CCSCc1ccccc1)SCc1ccccc1` (configuration not stated) [CPI-613] (10000 nM) gave a normalised response of 101%. Work on `CCc1cncnc1N1CCN(Cc2nc3ccc(C(F)(F)F)cc3[nH]2)CC1` (10000 nM) yielded a normalised response of 85.7%.

The compounds below were run on HCC1143 in the same assay as above. Details: incubation time: 72 h.
Experimental: as §1
Work on `CCCCC(=O)OCC(=O)[C@]1(O)Cc2c(O)c3c(c(O)c2[C@@H](O[C@H]2C[C@H](NC(=O)C(F)(F)F)[C@H](O)[C@H](C)O2)C1)C(=O)c1c(OC)cccc1C3=O` [Valrubicin] (5000 nM) yielded a normalised response of 19.9%. For `Cc1ccc(-c2cc(C(F)(F)F)nn2-c2ccc(S(N)(=O)=O)cc2)cc1` [Celecoxib] (10000 nM), the normalised response was 108%. `Oc1ncc(N(CCCl)CCCl)c(O)n1` [Uracil mustard] (10000 nM) showed a normalised response of 105%. `C=CCc1cccc(/C=N/NC(=O)CN2CCN(Cc3ccccc3)CC2)c1O` [PAC-1] (10000 nM) was tested, and the normalised response was 41.4%. With `COc1cc2c(NC3CCN(C(C)C)CC3)nc(C3CCCCC3)nc2cc1OCCCN1CCCC1` [UNC0638] (10000 nM) the normalised response was 36.4%. `C=CC(=O)Nc1cc2c(Nc3ccc(F)c(Cl)c3)ncnc2cc1OCCCN1CCOCC1` [Canertinib] (10000 nM) gave a normalised response of 24.3%. With `C=CC(=O)N1CCC[C@@H](n2nc(-c3ccc(Oc4ccccc4)cc3)c3c(N)ncnc32)C1` [Ibrutinib] (1000 nM) the normalised response was 102%. `O=C(O)CCCCC(CCSCc1ccccc1)SCc1ccccc1` (configuration not stated) [CPI-613] (10000 nM) was tested, and the normalised response was 100%. Work on `CCc1cncnc1N1CCN(Cc2nc3ccc(C(F)(F)F)cc3[nH]2)CC1` (10000 nM) yielded a normalised response of 90%.

Each compound was assayed on HCC1937 in the same assay as above. Details: incubation time: 72 h.
Experimental: as §1
`CCCCC(=O)OCC(=O)[C@]1(O)Cc2c(O)c3c(c(O)c2[C@@H](O[C@H]2C[C@H](NC(=O)C(F)(F)F)[C@H](O)[C@H](C)O2)C1)C(=O)c1c(OC)cccc1C3=O` [Valrubicin] (5000 nM) was tested, and the normalised response was 50.2%. `Cc1ccc(-c2cc(C(F)(F)F)nn2-c2ccc(S(N)(=O)=O)cc2)cc1` [Celecoxib] (10000 nM) gave a normalised response of 101%. With `Oc1ncc(N(CCCl)CCCl)c(O)n1` [Uracil mustard] (10000 nM) the normalised response was 98.9%. For `C=CCc1cccc(/C=N/NC(=O)CN2CCN(Cc3ccccc3)CC2)c1O` [PAC-1] (10000 nM), the normalised response was 27.7%. Compound `COc1cc2c(NC3CCN(C(C)C)CC3)nc(C3CCCCC3)nc2cc1OCCCN1CCCC1` [UNC0638] (10000 nM) has a normalised response of 13.6%. In the case of `C=CC(=O)Nc1cc2c(Nc3ccc(F)c(Cl)c3)ncnc2cc1OCCCN1CCOCC1` [Canertinib] (10000 nM), the normalised response was 14.5%. Compound `C=CC(=O)N1CCC[C@@H](n2nc(-c3ccc(Oc4ccccc4)cc3)c3c(N)ncnc32)C1` [Ibrutinib] (1000 nM) has a normalised response of 94.9%. `O=C(O)CCCCC(CCSCc1ccccc1)SCc1ccccc1` (configuration not stated) [CPI-613] (10000 nM) was tested, and the normalised response was 108%. Compound `CCc1cncnc1N1CCN(Cc2nc3ccc(C(F)(F)F)cc3[nH]2)CC1` (10000 nM) has a normalised response of 82.1%.

What follows are compounds tested on MDA-MB-453 in the same assay as above. Details: incubation time: 72 h.
Experimental: as §1
In the case of `CCCCC(=O)OCC(=O)[C@]1(O)Cc2c(O)c3c(c(O)c2[C@@H](O[C@H]2C[C@H](NC(=O)C(F)(F)F)[C@H](O)[C@H](C)O2)C1)C(=O)c1c(OC)cccc1C3=O` [Valrubicin] (5000 nM), the normalised response was 22.1%. `Cc1ccc(-c2cc(C(F)(F)F)nn2-c2ccc(S(N)(=O)=O)cc2)cc1` [Celecoxib] (10000 nM) showed a normalised response of 94.7%.
